From patent publication US9718792B2, “Isoxazoline hydroxamic acid derivatives as LpxC inhibitors” (priority 2014, dated 2017)
Values after ≈ are worked out from the molar mass of the structure shown. Read-outs that look alike come from different tables or passages of the source.

Columns and labels:
P. aeruginosa LpxC = P. aeruginosa LpxC (Pseudomonas aeruginosa (strain ATCC 15692 / DSM 22644 / CIP 104116 / JCM 14847 / LMG 12228 / 1C / PRS 101 / PAO1), UniProt P47205); assay: P. aeruginosa LpxC Inhibition Assay; format: biochemical; settings: 2 μM substrate, LC-MS/MS
Text: The P. aeruginosa LpxC protein is produced according to the general method of Hyland et al (Journal of Bacteriology 1997 179, 2029-2037: Cloning, expression and purification of UDP-3-O-acyl-GIcNAc deacetylase from Pseudomonas aeruginosa: a metalloamidase of the lipid A biosynthesis pathway). The LC-MS/MS method for quantitation of LpxC product was developed using an Agilent 1200 Capillary HPLC system coupled to an Applied Biosystems MDS Sciex 4000QTRAP mass spectrometer. Both instruments are controlled using the Applied Biosystems MDS Sciex Analyst software. LpxC reaction product (UDP-3-O—(R-3-hydroxyacyl)-glucosamine) was produced by hydrolysis of LpxC substrate catalyzed by P.a. LpxC and purified using reversed phase chromatography on a Phenomenex Luna C18(2) 4.6×50 mm column. An LpxC product calibration curve was generated to evaluate the sensitivity and dynamic range of the LC-MS/MS method. Briefly, compounds are pre-incubated with 1 nM P. aeruginosa LpxC for 30 min. at room temperature. Reactions are initiated by the addition of 2 μM UDP-3-O—(R-3-hydroxydecanoyl)-GIcNAc. Reactions are conducted in a 384-well plate with a total volume of 50 μL in each well containing 50 mM Sodium phosphate pH 7.5, 0.005% Trition X-100 for 20 min at room temperature. After quenching with 1.8% HOAc (5 μL of a 20% HOAc added to each well), reaction mixtures are analyzed using the LC-MS/MS method and peak areas are transformed into product concentration using a LpxC product calibration curve. Total activity (0% inhibition control) is obtained from reactions with no inhibitors and 100% inhibition control is the background using quenched samples before reaction starts. For IC50 determinations, peak areas are converted to percent inhibition in Microsoft Excel. Percent inhibition values are plotted vs. log compound concentration using XLfit. Data is fit to the four-parameter logistic equation using the non-linear regression algorithm in XLfit to return the IC50 and hill slope values.

P. aeruginosa PAO1 = assay: Susceptibility Testing (MIC, broth microdilution); format: cell-based, Pseudomonas aeruginosa; settings: P. aeruginosa PAO1, broth microdilution, 20 hours; for MIC: Pseudomonas aeruginosa, PAO1, 20 h, read-out: PAO1 MIC
Procedure: Bacterial isolates were cultivated from −70° C. frozen stocks by two consecutive overnight passages at 35° C. in ambient air on 5% blood agar (Remel, Lenexa, Kans.). Quality control and P. aeruginosa ATCC 27853) is from the American Type Culture Collection (ATCC; Rockville, Md.) and PAO1 was received from Dr. K. Poole.
Minimal Inhibitory Concentrations (MICs) were determined by the broth microdilution method in accordance with Clinical and Laboratories Institute (CLSI) guidelines. In brief, fresh bacterial overnight cultures were resuspended in sterile saline, adjusted to a 0.5 McFarland turbidity standard and then diluted […] in cation adjusted Mueller-Hinton Broth II (MHB; Remel BBL) to yield a final inoculum of approximately 5×10^5 colony-forming units (CFU)/mL. Two-fold serial dilutions of compounds were prepared in 100% dimethyl sulfoxide (DMSO) at 100-fold the highest final assay concentration; the resulting dilution series of compounds were diluted 1:10 with sterile water. Ten μl of the drug dilution series in 10% DMSO was transferred to microtiter wells and 90 μl of bacterial suspension was inoculated into the wells. All inoculated microdilution trays were incubated in ambient air at […] for 20 hours. Following incubation, assay plates were read in a microtiter plate reader at 600 nm and visually inspected to confirm the MIC endpoint well with the OD value. The lowest concentration of the compound that prevented visible growth was recorded as the MIC. Performance of the assay was monitored by testing ciprofloxacin against laboratory quality control strains in accordance with guidelines of the CLSI.

[1] = 1 nM P. aeruginosa LpxC, read-out: PA LpxC IC50

## COCC1CC(C#Cc2ccc(C3=NO[C@@H](C[C@](C)(C(=O)NO)S(C)(=O)=O)C3)cc2)C1 (stereo partly drawn) [Compound 53, (R)—N-hydroxy-3-((R)-3-(4-((3-(methoxymethyl)cyclobutyl)ethynyl)phenyl)-4,5-dihydroisoxazol-5-yl)-2-methyl-2-(methylsulfonyl)propanamide]
P. aeruginosa LpxC; [1]
  IC50: 0.5 nM
P. aeruginosa PAO1
  PAO1 MIC: 0.5 µg/mL

## CC(CC1CC(c2ccc(C3CC3)cc2)=NO1)(C(=O)NO)S(C)(=O)=O (single isomer, unassigned) [Compound 5-A, 3-(3-(4-cyclopropylphenyl)-4,5-dihydroisoxazol-5-yl)-N-hydroxy-2-methyl-2-(methylsulfonyl)propanamide]
P. aeruginosa LpxC; [1]
  IC50: 7 nM
P. aeruginosa PAO1
  MIC: 2 µg/mL (≈ 5.46 µM)

## C[C@@](C[C@H]1CC(c2ccc(C#CC3CC(CC#N)C3)cc2)=NO1)(C(=O)NO)S(C)(=O)=O (stereo partly drawn) [Compound 55, (R)-3-((R)-3-(4-((3-(cyanomethyl)cyclobutyl)ethynyl)phenyl)-4,5-dihydroisoxazol-5-yl)-N-hydroxy-2-methyl-2-(methylsulfonyl)propanamide]
P. aeruginosa LpxC; [1]
  IC50: < 0.5 nM
P. aeruginosa PAO1
  MIC: 0.5 µg/mL (≈ 1.13 µM)

## C[C@@](C[C@H]1CC(c2ccc(-c3ccc(C(O)CCO)cc3)cc2)=NO1)(C(=O)NO)S(C)(=O)=O (stereo partly drawn) [Compound 96, (2R)-3-((5R)-3-(4′-(1,3-dihydroxypropyl)-[1,1′-biphenyl]-4-yl)-4,5-dihydroisoxazol-5-yl)-N-hydroxy-2-methyl-2-(methylsulfonyl)propanamide]
P. aeruginosa LpxC; [1]
  IC50: < 0.5 nM
P. aeruginosa PAO1
  MIC: 0.5 µg/mL (≈ 1.05 µM)

## CC(C)(O)c1ccc(-c2ccc(C3=NO[C@@H](C[C@](C)(C(=O)NO)S(C)(=O)=O)C3)cc2F)cc1 [Compound 110, (R)-3-((R)-3-(2-fluoro-4′-(2-hydroxypropan-2-yl)-[1,1′-biphenyl]-4-yl)-4,5-dihydroisoxazol-5-yl)-N-hydroxy-2-methyl-2-(methylsulfonyl)propanamide]
P. aeruginosa LpxC; [1]
  IC50: < 0.5 nM
P. aeruginosa PAO1
  MIC: 0.5 µg/mL (≈ 1.04 µM)

## COCC1CC(C#Cc2ccc(C3=NO[C@@H](C[C@](C)(C(=O)NO)S(C)(=O)=O)C3)cc2)C1 (stereo partly drawn) [Compound 52, (R)—N-hydroxy-3-((R)-3-(4-((3-(methoxymethyl)cyclobutyl)ethynyl)phenyl)-4,5-dihydroisoxazol-5-yl)-2-methyl-2-(methylsulfonyl)propanamide]
P. aeruginosa LpxC; [1]
  IC50: 0.8 nM
P. aeruginosa PAO1
  MIC: 1 µg/mL (≈ 2.23 µM)

## CC(O)C#CC#Cc1ccc(C2=NO[C@@H](C[C@](C)(C(=O)NO)S(C)(=O)=O)C2)cc1 (stereo partly drawn) [Compound 30, (2R)—N-hydroxy-3-((5R)-3-(4-(5-hydroxyhexa-1,3-diyn-1-yl)phenyl)-4,5-dihydroisoxazol-5-yl)-2-methyl-2-(methylsulfonyl)propanamide]
P. aeruginosa LpxC; [1]
  IC50: 0.5 nM
P. aeruginosa PAO1
  MIC: 0.06 µg/mL (≈ 0.143 µM)

## C[C@@](C[C@H]1CC(c2ccc(-c3ccc(C(F)(F)F)nc3)cc2)=NO1)(C(=O)NO)S(C)(=O)=O [Compound 64, (R)—N-hydroxy-2-methyl-2-(methylsulfonyl)-3-((R)-3-(4-(6-(trifluoromethyl)pyridin-3-yl)phenyl)-4,5-dihydroisoxazol-5-yl)propanamide]
P. aeruginosa LpxC; [1]
  IC50: < 0.5 nM
P. aeruginosa PAO1
  MIC: 0.25 µg/mL (≈ 0.53 µM)

## C[C@@](C[C@H]1CC(c2ccc(C#CC3CCOCC3)cc2)=NO1)(C(=O)NO)S(C)(=O)=O [Compound 98, (R)—N-hydroxy-2-methyl-2-(methylsulfonyl)-3-((R)-3-(4-((tetrahydro-2H-pyran-4-yl)ethynyl)phenyl)-4,5-dihydroisoxazol-5-yl)propanamide]
P. aeruginosa LpxC; [1]
  IC50: 0.6 nM
P. aeruginosa PAO1
  MIC: 2 µg/mL (≈ 4.6 µM)

## Cc1cnccc1-c1ccc(C2=NO[C@@H](C[C@](C)(C(=O)NO)S(C)(=O)=O)C2)cc1 [Compound 85, (R)-3-((R)-3-(4-(3-methylpyridin-4-yl)phenyl)-4,5-dihydroisoxazol-5-yl)-N-hydroxy-2-methyl-2-(methylsulfonyl)propanamide]
P. aeruginosa LpxC; [1]
  IC50: < 0.5 nM
P. aeruginosa PAO1
  MIC: 0.5 µg/mL (≈ 1.2 µM)

## C[C@@](C[C@H]1CC(c2ccc(-c3cnsc3)cc2)=NO1)(C(=O)NO)S(C)(=O)=O [Compound 92, (R)—N-hydroxy-3-((R)-3-(4-(isothiazol-4-yl)phenyl)-4,5-dihydroisoxazol-5-yl)-2-methyl-2-(methylsulfonyl)propanamide]
P. aeruginosa LpxC; [1]
  IC50: < 0.5 nM
P. aeruginosa PAO1
  MIC: 0.35 µg/mL (≈ 0.855 µM)

## CC(C)c1cc(-c2ccc(C3=NO[C@@H](C[C@](C)(C(=O)NO)S(C)(=O)=O)C3)cc2F)ccn1 [Compound 112, (R)-3-((R)-3-(3-fluoro-4-(2-isopropylpyridin-4-yl)phenyl)-4,5-dihydroisoxazol-5-yl)-N-hydroxy-2-methyl-2-(methylsulfonyl)propanamide]
P. aeruginosa LpxC; [1]
  IC50: < 0.5 nM
P. aeruginosa PAO1
  MIC: 1 µg/mL (≈ 2.16 µM)

## (R)-3-((R)-3-(2-fluoro-4′-((R)-2-hydroxypropyl)-[1,1′-biphenyl]-4-yl)-4,5-dihydroisoxazol-5-yl)-N-hydroxy-2-methyl-2-(methylsulfonyl)propanamide [Compound 107]
P. aeruginosa LpxC; [1]
  IC50: 0.5 nM
P. aeruginosa PAO1
  PAO1 MIC: 0.25 µg/mL

## C[C@@H](O)Cc1cc(F)c(-c2ccc(C3=NO[C@@H](C[C@](C)(C(=O)NO)S(C)(=O)=O)C3)cc2)c(F)c1 [Compound 88, (R)-3-((R)-3-(2′,6′-difluoro-4′-((R)-2-hydroxypropyl)-[1,1′-biphenyl]-4-yl)-4,5-dihydroisoxazol-5-yl)-N-hydroxy-2-methyl-2-(methylsulfonyl) propanamide]
P. aeruginosa LpxC; [1]
  IC50: < 0.5 nM
P. aeruginosa PAO1
  MIC: 0.25 µg/mL (≈ 0.503 µM)

## C[C@@H](O)Cc1ccc(-c2ccc(C3=NO[C@@H](C[C@](C)(C(=O)NO)S(C)(=O)=O)C3)cc2)cc1 [Compound 45, (R)—N-hydroxy-3-((R)-3-(4′-((R)-2-hydroxypropyl)-[1,1′-biphenyl]-4-yl)-4,5-dihydroisoxazol-5-yl)-2-methyl-2-(methylsulfonyl)]
P. aeruginosa LpxC; [1]
  IC50: 0.6 nM
P. aeruginosa PAO1
  MIC: 0.16 µg/mL (≈ 0.347 µM)

## C[C@@](C[C@H]1CC(c2ccc(C#CCCF)cc2)=NO1)(C(=O)NO)S(C)(=O)=O [Compound 22, (R)-3-((R)-3-(4-(4-fluorobut-1-yn-1-yl)phenyl)-4,5-dihydroisoxazol-5-yl)-N-hydroxy-2-methyl-2-(methylsulfonyl)propanamide]
P. aeruginosa LpxC; [1]
  IC50: < 0.5 nM
P. aeruginosa PAO1
  MIC: 0.5 µg/mL (≈ 1.26 µM)

## CCc1cc(-c2ccc(C3=NO[C@@H](C[C@](C)(C(=O)NO)S(C)(=O)=O)C3)cc2)ccn1 [Compound 71, (R)-3-((R)-3-(4-(2-ethylpyridin-4-yl)phenyl)-4,5-dihydroisoxazol-5-yl)-N-hydroxy-2-methyl-2-(methylsulfonyl)propanamide]
P. aeruginosa LpxC; [1]
  IC50: 6 nM
P. aeruginosa PAO1
  MIC: 0.71 µg/mL (≈ 1.65 µM)

## CC#Cc1ccc(C2=NOC(CC(C)(C(=O)NO)S(C)(=O)=O)C2)c(F)c1 (single isomer, unassigned) [Compound 16-B, 3-(3-(2-fluoro-4-(prop-1-yn-1-yl)phenyl)-4,5-dihydroisoxazol-5-yl)-N-hydroxy-2-methyl-2-(methylsulfonyl)propanamide]
P. aeruginosa LpxC; [1]
  IC50: 0.6 nM
P. aeruginosa PAO1
  MIC: 1 µg/mL (≈ 2.61 µM)

## C[C@@](C[C@H]1CC(c2ccc(-c3ccsc3)cc2)=NO1)(C(=O)NO)S(C)(=O)=O [Compound 91, (R)—N-hydroxy-2-methyl-2-(methylsulfonyl)-3-((R)-3-(4-(thiophen-3-yl)phenyl)-4,5-dihydroisoxazol-5-yl)propanamide]
P. aeruginosa LpxC; [1]
  IC50: < 0.5 nM
P. aeruginosa PAO1
  MIC: 0.125 µg/mL (≈ 0.306 µM)

## Cn1ccc(-c2ccc(C3=NO[C@@H](C[C@](C)(C(=O)NO)S(C)(=O)=O)C3)cc2F)cc1=O [Compound 108, (R)-3-((R)-3-(3-fluoro-4-(1-methyl-2-oxo-1,2-dihydropyridin-4-yl)phenyl)-4,5-dihydroisoxazol-5-yl)-N-hydroxy-2-methyl-2-(methylsulfonyl)propanamide]
P. aeruginosa LpxC; PA LpxC IC50, 1 nM P. aeruginosa LpxC
  IC50: 2 nM
P. aeruginosa PAO1
  MIC: 8 µg/mL (≈ 17.7 µM)
